Laboratory results: patent EP4775582A1, “MACROCYCLIC COMPOUND AND ANTIBODY-DRUG CONJUGATE THEREOF” (Genfleet Therapeutics (Shanghai) Inc., priority 2023, dated 2025)

Columns and labels:
H441 p-ERK = assay: Cell p-ERK assay (HTRF), NCI-H441 cells; format: cell-based, human; details: NCI-H441 cells (KRAS G12V), 3 h incubation
Experimental: (§1) The cells were digested with trypsin (containing EDTA), collected in their corresponding complete media, and counted. The density of the cell suspensions was adjusted with their corresponding complete media, and 10000 AsPC-1 cells or 20000 NCI-H441 cells per well were seeded into a 96-well cell culture plate, with the volume of the medium in each well being 80 µL. The cell culture plate was incubated in an incubator at 37 °C with 5% CO2 overnight. […] On the day after cell seeding, 20 µL of the 5× compound stock solution was added to each cell culture well. […] In addition to the compound-treated wells described above, cell-containing DMSO control wells were also set. A complete medium containing 0.5% DMSO was added at 20 µL/well. After the mixture was well mixed, the culture plate was incubated in the incubator at 37 °C with 5% CO2 for another 3 h. The medium was then removed from the culture wells, and 50 µL of cell lysis buffer (from Advance ERK phospho-T202/Y204 kit) was added to each well. The mixture was well mixed and incubated for 30 min. Then, 16 µL of the mixture was transferred to a white-bottomed, opaque 96-well assay plate, and separately, 16 µL of cell lysis buffer was added to additional wells (serving as blank wells) in the assay plate. After the transfer was completed, 4 µL of p-ERK HTRF antibody mixture (from Advance ERK phospho-T202/Y204 kit) was added to each well of the assay plate, followed by a 4-hour incubation. […] Using an XLfit software, the IR (%) values were plotted against the logarithm of the compound concentrations, and the dose-response curves were fitted using the four-parameter method to calculate the IC50 values.

AsPC-1 p-ERK = assay: Cell p-ERK assay (HTRF), AsPC-1 cells; format: cell-based, human; details: Homo sapiens, ASPC1, 3 h, read-out: AsPC-1 p-ERK IC50(nM)
Experimental: as §1

| Structure (SMILES) | IC50 (H441 p-ERK; Homo sapiens) | IC50 (AsPC-1 p-ERK) | IC50 (H441 p-ERK) |
| --- | --- | --- | --- |
| COCCn1c(-c2cc(C#CCN3CCN(C(=O)CO)CC3)cnc2[C@H](C)OC)c2c3cc(ccc31)-c1csc(n1)C[C@H](NC(=O)[C@H]1[C@@H]3COC[C@@H]31)C(=O)N1CCC[C@H](N1)C(=O)OCC(C)(C)C2 (atropisomer, axis not shown) [Compound Z31, (1R,5S,6r)-N-((6^3S,4S,Z)-1^2-(5-(3-(4-(2-hydroxyacetyl)piperazin-1-yl)prop-1-yn-1-yl)-2-((S)-1-methoxyethyl)pyridin-3-yl)-1^1-(methoxyethyl)-10,10-dimethyl-5,7-dioxo-6^1,6^2,6^3,6^4,6^5,6^6-hexahydro-1^1H-8-oxa-2(4,2)-thiazola-1(5,3)-indola-6(1,3)-pyridazinacycloundecaphane-4-yl)-3-oxabicyclo[3.1.0]hexane-6-carboxamide] | 2.39 nM |  |  |
| CCn1c(-c2cc(C#CCN3CCCOCC3)cnc2[C@H](C)OC)c2c3cc(ccc31)-c1csc(n1)C[C@H](NC1=NOC3(CCOCC3)C1)C(=O)N1CCC[C@H](N1)C(=O)OCC(C)(C)C2 (atropisomer, axis not shown) [Compound Z175, (6^3S,4S,Z)-1^2-(5-(3-(1,4-oxazepan-4-yl)prop-1-yn-1-yl)-2-((S)-1-methoxyethyl)pyridin-3-yl)-4-((1,8-dioxa-2-azaspiro[4.5]dec-2-en-3-yl)amino)-1^1-ethyl-10,10-dimethyl-6^1,6^2,6^3,6^4,6^5,6^6-hexahydro-1^1H-8-oxa-2(4,2)-thiazola-1(5,3)-indola-6(1,3)-pyridazinacycloundecaphane-5,7-dione] | 2.61 nM | 6.03 nM |  |
| CCn1c(-c2cc(C#CCN3CCS(=O)(=O)CC3)cnc2[C@H](C)OC)c2c3cc(ccc31)-c1csc(n1)C[C@H](NC(=O)[C@@H](NC)C(C)C)C(=O)N1CCC[C@H](N1)C(=O)OCC(C)(C)C2 (atropisomer, axis not shown) [Compound Z4, (2S)-N-((6^3S,4S,Z)-1^2-(5-(3-(1,1-dioxidothiomorpholin-4-yl)prop-1-yn-1-yl)-2-((S)-1-methoxyethyl)pyridin-3-yl)-1^1-ethyl-10,10-dimethyl-5,7-dioxo-6^1,6^2,6^3,6^4,6^5, 6^6-hexahydro-1^1H-8-oxa-2(4,2)-thiazola-1(5,3)-indola-6(1,3)-pyridazinacycloundecaphane-4-yl)-3-methyl-2-(methylamino)butanamide] | 0.53 nM | 0.52 nM |  |
| CCn1c(-c2cc(C#CCN3CCCOCC3)cnc2[C@H](C)OC)c2c3cc(ccc31)-c1csc(n1)C[C@H](NC1=NOC(C)(CC)C1)C(=O)N1CCC[C@H](N1)C(=O)OCC(C)(C)C2 (atropisomer, axis not shown) [Compound Z173, (6^3S,4S,Z)-1^2-(5-(3-(1,4-oxazepan-4-yl)prop-1-yn-1-yl)-2-((S)-1-methoxyethyl)pyridin-3-yl)-1^1-ethyl-10,10-dimethyl-4-((5-ethyl-5-methyl-4,5-dihydroisoxazol-3-yl)amino)-6^1,6^2,6^3,6^4,6^5,6^6-hexahydro-1^1H-8-oxa-2(4,2)-thiazola-1(5,3)-indola-6(1,3)-pyridazinacycloundecaphane-5,7-dione] | 3.03 nM |  |  |
| CCn1c(-c2cc(C#CCN3CCS(=O)(=O)CC3)cnc2[C@H](C)OC)c2c3cc(ccc31)-c1cc(N)cc(c1)C[C@H](NC(=O)C(C(C)C)N(C)C(=O)[C@@H]1CN(C(=O)OC)C[C@@H]1C)C(=O)N1CCC[C@H](N1)C(=O)OCC(C)(C)C2 (atropisomer, axis not shown; (Ra)) [Compound Z62] |  |  | 3.19 nM |
| CCn1c(-c2cc(C#CCN3CCCOCC3)cnc2[C@H](C)OC)c2c3cc(ccc31)-c1csc(n1)C[C@H](NC1=NOC(C)(C)C1)C(=O)N1CCC[C@H](N1)C(=O)OCC(C)(C)C2 (atropisomer, axis not shown; (Ra)) [Compound Z172-1, (6^3S,4S,Z)-(Ra)-1^2-(5-(3-(1,4-oxazepan-4-yl)prop-1-yn-1-yl)-2-((5)-1-methoxyethyl)pyridin-3-yl)-1^1-ethyl-10,10-dimethyl-4-((5,5-dimethyl-4,5-dihydroisoxazol-3-yl)amino)-6^1,6^2,6^3,6^4,6^5,6^6-hexahydro-1^1H-8-oxa-2(4,2)-thiazola-1(5,3)-indola-6(1,3)-pyridazinacycloundecaphane-5,7-dione] | 2.17 nM | 5.8 nM |  |
| CCn1c(-c2cc(C#CCN3CCCOCC3)cnc2[C@H](C)OC)c2c3cc(ccc31)-c1csc(n1)C[C@H](NC1=NOC(C)(C(C)C)C1)C(=O)N1CCC[C@H](N1)C(=O)OCC(C)(C)C2 (atropisomer, axis not shown; (Ra)) [Compound Z280, (6^3S,4S,Z)-(Ra)-1^2-(5-(3-(1,4-oxazepan-4-yl)prop-1-yn-1-yl)-2-((S)-1-methoxyethyl)pyridin-3-yl)-1^1-ethyl-10,10-dimethyl-4-((5-isopropyl-5-methyl-4,5-dihydroisoxazol-3-yl)amino)-6^1,6^2,6^3,6^4,6^5,6^6-hexahydro-1^1H-8-oxa-2(4,2)-thiazola-1(5,3)-indola-6(1,3)-pyridazinacycloundecaphane-5,7-dione] | 1.43 nM |  |  |
| CCn1c(-c2cc(C#CCN3CCS(=O)(=O)CC3)cnc2[C@H](C)OC)c2c3cc(ccc31)-c1csc(n1)C[C@H](NC(=O)[C@@H](N)C1CCCC1)C(=O)N1CCC[C@H](N1)C(=O)OCC(C)(C)C2 (atropisomer, axis not shown; (Ra)) [Compound Z14, (2S)-2-amino-2-cyclopentyl-N-((6^3S,4S,Z)-(Ra)-1^2-(5-(3-(1,1-dioxidothiomorpholino)prop-1-yn-1-yl)-2-((S)-1-methoxyethyl)pyridin-3-yl)-1^1-ethyl-10,10-dimethyl-5,7-dioxo-6^1,6^2,6^3,6^4,6^5,6^6-hexahydro-1^1H-8-oxa-2(4,2)-thiazola-1(5,3)-indola-6(1,3)-pyridazinacycloundecaphane-4-yl)acetamide] | 0.41 nM | 0.45 nM |  |
